The values below come from ChEMBL document CHEMBL1777719, “Norcantharidin analogues with nematocidal activity in Haemonchus contortus” (Bioorg Med Chem Lett, 2011).

Data set [1] relates to Haemonchus contortus. The data set can be described thus: Nematocidal activity against Haemonchus contortus Haecon 5 strain isolated from helminth-free Merino weaner sheep after 6 days by larval development assay. The format is functional. The following applies: for LC50: Haemonchus contortus, Haecon 5 strain, 144 h, read-out: LD50 (the source's name).
The nature of data set [2]: Cytotoxicity against human HT-29 cells after 72 hrs by MTT assay. Format: cell-based.
The nature of data set [3]: Cytotoxicity against human SW480 cells after 72 hrs by MTT assay. Format: cell-based.
Data set [4] in a line: Cytotoxicity against human MCF7 cells after 72 hrs by MTT assay. Format: cell-based.
Data set [5] can be described thus: Cytotoxicity against human A2780 cells after 72 hrs by MTT assay. The format is cell-based.
A short description of data set [6]: Cytotoxicity against human H460 cells after 72 hrs by MTT assay. Format: cell-based. The following applies: NCI-H460 cells.
A short description of data set [7]: Cytotoxicity against human A431 cells after 72 hrs by MTT assay. Format: cell-based, A-431.
Data set [8] in a line: Cytotoxicity against human DU145 cells after 72 hrs by MTT assay. Format: cell-based, DU-145.
The nature of data set [9]: Cytotoxicity against human BE(2)-C cells after 72 hrs by MTT assay. The format is cell-based.
Data set [10] is described as follows: Cytotoxicity against human SJ-G2 cells after 72 hrs by MTT assay. Format: cell-based.
The test system of data set [11] is Haemonchus contortus. The data set can be described thus: Nematocidal activity against Haemonchus contortus Haecon 5 strain isolated from helminth-free Merino weaner sheep at 12.5 to 100 uM after 6 days by larval development assay. Format: functional, organism-based.

The source made the active and inactive calls. No cut-off for these calls is given here.

In the case of `CCCCCCCCCCN1C(=O)[C@@H]2[C@H](C1=O)[C@H]1CC[C@@H]2O1`, in data set [1], the LD99 is 90 µM and the LC50 is 30 µM.

Consider `CCCCCCCCN1C(=O)[C@@H]2[C@H](C1=O)[C@H]1CC[C@@H]2O1`, for which, in data set [1], the LD99 was found to be 80 µM and the LC50 was found to be 40 µM.

In the case of `N#C/C(=C\c1ccc[nH]1)c1ccc(F)cc1`, in data set [1], the LD99 is 50 µM and the LC50 was 10 µM.

`O=C(O)C1C(C(=O)Nc2ccccc2)[C@H]2CC[C@@H]1O2` (some centres not stated): the GI50 at 72 h in data set [2], in data set [3], in data set [4], in data set [5], in data set [6] and in [7] was 10 µM throughout. Besides, the GI50 at 72 h in [8], in data set [9] and in [10] was 10 µM in each case. Also, the inhibition result in [11] is “inactive”.

On to `O=C(O)C1C(C(=O)NCCc2ccccc2)[C@H]2CC[C@@H]1O2` (some centres not stated), for which the GI50 at 72 h in [2], in [3], in data set [4], in data set [5], in data set [6] and in data set [7] was 10 µM in each case. Further, the GI50 at 72 h in data set [8], in data set [9] and in [10] was 10 µM each time. Moreover, in [11], the inhibition entry is “inactive”.

Consider `N#C/C(=C\c1ccc[nH]1)c1ccccc1`, for which, in data set [1], the LD99 turned out to be 100 µM and the LC50 came out at 6 µM.

Turning to `O=C(O)CCCCCCCNC(=O)C1C(C(=O)O)[C@@H]2CC[C@H]1O2` (some centres not stated), the concentration for 50% growth inhibition (GI50) at 72 h in data set [2], in data set [3], in data set [4], in data set [5], in data set [6] and in data set [7] was 10 µM throughout. In addition, the GI50 at 72 h in [8], in [9] and in data set [10] was 10 µM in each case. In addition, in data set [11], the inhibition result was “inactive”.

Regarding `N#C/C(=C\c1ccc[nH]1)c1ccc(Cl)cc1`, in [1], the LD99 came to 25 µM and the LC50 is 10 µM.

For `CCCCCCCCNC(=O)C1C(C(=O)O)[C@@H]2CC[C@H]1O2` (some centres not stated), the concentration for 50% growth inhibition (GI50) at 72 h in data set [2], in data set [3], in data set [4], in [5], in data set [6] and in data set [7] was 10 µM throughout. Also, the GI50 at 72 h in data set [8], in data set [9] and in [10] was 10 µM in each case. Also, the inhibition entry in data set [11] is “inactive”.

As to `O=C(O)c1ccc(NC(=O)C2C(C(=O)O)[C@@H]3CC[C@H]2O3)cc1Cl` (some centres not stated), the GI50 at 72 h in [2], in [3], in data set [4], in data set [5], in [6] and in data set [7] was 10 µM in each case. Also, the GI50 at 72 h in [8], in [9] and in data set [10] was 10 µM throughout. Also, the inhibition result in data set [11] is “inactive”.

For the compound `N#C/C(=C\c1ccc[nH]1)c1ccc(Cl)c(Cl)c1`, in [1], the LD99 turned out to be 12.5 µM and the LC50 stood at 7 µM.

For `CCOC(=O)c1cn[nH]c1NC(=O)C1C(C(=O)O)[C@@H]2CC[C@H]1O2` (some centres not stated), the 50% growth inhibitory concentration (GI50) at 72 h in [2], in data set [3], in data set [4], in [5], in data set [6] and in data set [7] was 10 µM throughout. Also, the GI50 at 72 h in [8], in data set [9] and in data set [10] was 10 µM each time. In addition, in data set [11], the inhibition result was “inactive”.

Turning to `CCc1ccccc1NC(=O)C1C(C(=O)O)[C@@H]2CC[C@H]1O2` (some centres not stated), the GI50 at 72 h in [2], in [3], in [4], in data set [5], in data set [6] and in [7] was 10 µM each time. In addition, the GI50 at 72 h in [8], in data set [9] and in data set [10] was 10 µM each time. Besides, in data set [11], the inhibition entry is “inactive”.
